Measured values: ChEMBL document CHEMBL1127942, “Phenol based tripeptide inhibitors of ras farnesyl protein transferase” (Bioorg Med Chem Lett, 1994)
pIC50: −log10 of the molar value.

Target: Protein farnesyltransferase (Homo sapiens, UniProt P49354+P49356)
Test: Inhibition of Protein farnesyltransferase (FPT)
Format: protein-complex assay
Conditions: read-out: I50

pIC50	SMILES
4.20	CC(C)C[C@H](NC(=O)[C@@H](NC(=O)c1ccccc1OCc1ccccc1)C(C)C)C(=O)N[C@@H](CO)C(=O)O
3.86	CC(C)C[C@H](NC(=O)[C@@H](NC(=O)c1cc(O)ccc1OCc1ccccc1)C(C)C)C(=O)N[C@@H](CO)C(=O)O
< 3.44	CC(C)C[C@H](NC(=O)[C@@H](NC(=O)c1ccc(O)cc1)C(C)C)C(=O)N[C@@H](CO)C(=O)O
< 3.44	CC(C)C[C@H](NC(=O)[C@@H](NC(=O)c1cccc(OCc2ccccc2)c1O)C(C)C)C(=O)N[C@@H](CO)C(=O)O
6.00	CC(C)C[C@H](NC(=O)[C@@H](NC(=O)CCS)C(C)C)C(=O)N[C@@H](CO)C(=O)O
< 3.44	CC(C)C[C@H](NC(=O)[C@@H](NC(=O)c1cccc(OCc2ccccc2)c1)C(C)C)C(=O)N[C@@H](CO)C(=O)O
3.78	CC(C)C[C@H](NC(=O)[C@@H](NC(=O)c1ccc(OCc2ccccc2)cc1)C(C)C)C(=O)N[C@@H](CO)C(=O)O
< 3.44	CC(C)C[C@H](NC(=O)[C@@H](NC(=O)[C@@H](N)CO)C(C)C)C(=O)N[C@@H](CO)C(=O)O
4.54	CC(C)C[C@H](NC(=O)[C@@H](NC(=O)c1cccc(O)c1)C(C)C)C(=O)N[C@@H](CO)C(=O)O
3.80	CC(C)C[C@H](NC(=O)[C@@H](NC(=O)c1cccc(O)c1OCc1ccccc1)C(C)C)C(=O)N[C@@H](CO)C(=O)O
< 3.44	CC(C)C[C@H](NC(=O)[C@@H](NC(=O)c1ccccc1O)C(C)C)C(=O)N[C@@H](CO)C(=O)O
